Test results: paper PMC9804781, “Identification of a Novel Pseudo‐Natural Product Type IV IDO1 Inhibitor Chemotype” (Angewandte Chemie (International Ed. in English), 2022)

Experiments:
[1] = biological target: T1, Recombinant human His-IDO1 (rhIDO1) (Homo sapiens, UniProt P14902); assay: in vitro Kyn assay (IDO1 enzymatic assay); format: biochemical
T1 construct: His; made in house; host or cells: E. coli
Method: To detect direct inhibition, 1 µM rhIDO1 was incubated with compounds for 40 min at 37°C in 50 mM potassium phosphate buffer (16.9 mM K2HPO4, 33.1 mM, KH2PO4, pH 6.5).
Subsequently, 10 mM ascorbic acid, 10 μM methylene blue, 2 mM L-Trp and 100 μg/mL catalase were added and samples were incubated for 60 min at room temperature or 37°C. Trichloroacetic acid was added to a final concentration of 7% (v/v) and samples were incubated for 30 min at 70°C. Afterwards, an equal volume of freshly prepared 2% (w/v) p-DMAB in glacial acetic acid (Ehrlich reagent) was added prior to measuring absorbance at 492 nm and 650 nm on the Spark® Multimode Microplate Reader (Tecan, AT). To determine the Kyn levels, the absorbance of the Kyn-p-DMAB adduct A492 was subtracted by the background absorbance A650 and normalized to the DMSO control. Data analysis was performed using a non-linear regression curve fit and GraphPad Prism 9.0 (GraphPad Software, Inc, US) to generate dose-response curves and obtain

His-tagged TDO = biological target: T2, His-tagged TDO (Homo sapiens, UniProt P48775); assay: TDO Activity Assay; format: biochemical; conditions: 50 µM; 120 min at 37 °C
T2 construct: His; purchased BPS Bioscience 72035 (kit)
T2 sequence (P48775 whole entry): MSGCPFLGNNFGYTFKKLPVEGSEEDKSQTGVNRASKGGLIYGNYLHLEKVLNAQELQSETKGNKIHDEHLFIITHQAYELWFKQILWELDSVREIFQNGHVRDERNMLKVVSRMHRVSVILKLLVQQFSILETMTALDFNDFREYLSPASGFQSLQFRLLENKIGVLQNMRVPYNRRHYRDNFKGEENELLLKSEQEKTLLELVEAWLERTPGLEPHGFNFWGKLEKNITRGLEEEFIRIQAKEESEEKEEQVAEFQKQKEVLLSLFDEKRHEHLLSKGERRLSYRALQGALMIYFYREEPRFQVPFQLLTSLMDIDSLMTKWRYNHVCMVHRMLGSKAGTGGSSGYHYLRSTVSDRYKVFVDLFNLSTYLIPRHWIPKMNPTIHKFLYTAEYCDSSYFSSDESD
Method: Inhibition of tryptophan 2,3-dioxygenase (TDO) was tested using the Universal IDO1/IDO2/TDO Inhibitor Screening Assay Kit (cat# 72035, BPS Bioscience, US). 500 ng His-tagged TDO in TDO Assay Buffer was incubated with Reaction Solution and 50 µM Test Inhibitor (0.5% (v/v) DMSO) for 120 min at 37°C with slow shaking in the dark. Afterwards, absorbance at 321 nm was recorded on the Spark® Multimode Microplate Reader (Tecan, AT), all values were subtracted by the background and normalized to the DMSO control. […]
(v/v) component 2 in component 1) and 50 µM Test Inhibitor (0.5% (v/v) DMSO) for 90 min at 30°C with slow shaking in the dark prior to initiation of the reaction by addition of 20% (v/v) IDO2 Substrate. Samples were incubated for 120 min at 30°C with slow shaking in the dark. […]

[2] = test system: L-Trp uptake in BxPC-3 cells; assay: Trp uptake assay in BxPC-3 cells (HPLC-MS/MS); format: cell-based; conditions: BxPC-3 starved for L-Trp 72 h, ±IFN-γ; 5 mM L-Leu, 1 mM 1-MT, 5 µM compound
Method: GraphPad Prism 9.0 (GraphPad Software, Inc, US) to generate dose-response curves and obtain […]
IDO1 promoter reporter gene assay
HEK293T cells (25,000 cells/well) were reverse-transfected with pXPG-IDO1[16] (4 µg/96-well plate, kindly provided by Gina M. Doody, Leeds, UK) and pRL-TK (300 ng/96-well plate, Promega, US) using Lipofectamine™ 2000 (Invitrogen, USA) pri or to incubation for 24 h. Afterwards, cells were treated with 50 ng/mL IFN-γ and the compounds for 48 h. Luminescence generated by the Fluc reporter and the control reporter Rluc was measured using the Dual-Glo ® Luciferase Assay System (Promega, US) on the Spark® Multimode Microplate Reader (Tecan, AT). To determine the IDO1 promoter activity, Fluc signals were divided by Rluc signals and normalized to the values of the DMSO control. Data analysis was performed using a non-linear regression curve fit and […]
BxPC-3 cells (30,000 cells/well) were seeded in 96-well plates in Trp-free RPMI 1640 medium and incubated for 48 h prior addition of 50 ng/mL IFN-γ. Trp starvation was continued for another 24 h. Afterwards, medium was exchanged for Trp-free medium containing the control inhibitors 5 mM L-Leu (inhibitor of system-L amino acid transporters (LAT)), 1 mM 1-methyl-L-tryptophan (inhibitor of tryptophanyl-tRNA synthetase (TrpRS)) and compounds and cells were incubated for 30 min. Subsequently, 50 µM L-Trp was added and samples were incubated for another 30 min.
The supernatant was transferred to a new plate, trichloroacetic acid was added to a final concentration of 7% (v/v) and plates were incubated for 15 min at room temperature. Samples were centrifuged for 10 min at 1800 x g and L-Trp was quantified by HPLC-MS/MS using the LTQ Velos Pro and Dionex HPLC (Thermo Fisher Scientific, US). Data analysis was performed with Xcalibur™ (Thermo Fisher Scientific, US) and repres ented using GraphPad Prism 9.0 (GraphPad […]
RNA purification and RT-qPCR
HeLa cells (250,000 cells/well) were seeded in 6-well plates and incubated for 24 h prior addition of 50 ng/mL IFN-γ and compounds. […]

[3] = test system: Kyn levels in BxPC-3 cells; assay: Manual Kyn assay in BxPC-3 cells (p-DMAB detection), incl. hemin competition; format: cell-based; conditions: IFN-γ, L-Trp
Method: Mammalian cell lines were maintained at 37°C and 5% CO2 in a humidified atmosphere and sub-cultivated twice a week. All cell lines were tested regularly for mycoplasma contamination and were always free of mycoplasma. BxPC-3 cells (DSMZ#760) were grown in RPMI-1640 medium supplemented with 10% FBS, 2 mM L-glutamine, 1 mM sodium pyruvate, 4.5 g/L glucose, 10 mM HEPES and 1.5 g/L NaHCO3. HeLa cells (DSMZ#57) were cultivated in DMEM supplemented with 10% FBS, 4.5 g/L glucose, 4 mM L-glutamine 1 mM sodium pyruvate, 1% non-essential amino acids, 3.7 g/L NaHCO3. SKOV-3 cells (ATCC#HTB-77) were maintained in modified McCoy’s 5A medium supplemented with 10% FBS, 1.5 mM L-glutamine and 2.2 g/L NaHCO3. […]
For manual testing, BxPC-3, HeLa or SKOV-3 cells (20,000 cells/well, 5,000 cells/well or 6,250 cells/well, respectively) were seeded in 96-well plates (BxPC-3 and HeLa) or 384-well plates (SKOV-3) in medium without phenol red. […]
temperature and centrifuged for 10 min at 1800 x g. Afterwards, an equal volume of freshly prepared 2% (w/v) p-DMAB in glacial acetic acid (Ehrlich reagent) was added prior to measuring the absorbance at 492 nm and 650 nm on the Spark® Multimode Microplate Reader (Tecan, AT).
To determine the Kyn levels, the absorbance of the Kyn-p-DMAB adduct A492 was subtracted by the background absorbance A650 and normalized to the DMSO control. […]

T1 sequence (P14902 whole entry): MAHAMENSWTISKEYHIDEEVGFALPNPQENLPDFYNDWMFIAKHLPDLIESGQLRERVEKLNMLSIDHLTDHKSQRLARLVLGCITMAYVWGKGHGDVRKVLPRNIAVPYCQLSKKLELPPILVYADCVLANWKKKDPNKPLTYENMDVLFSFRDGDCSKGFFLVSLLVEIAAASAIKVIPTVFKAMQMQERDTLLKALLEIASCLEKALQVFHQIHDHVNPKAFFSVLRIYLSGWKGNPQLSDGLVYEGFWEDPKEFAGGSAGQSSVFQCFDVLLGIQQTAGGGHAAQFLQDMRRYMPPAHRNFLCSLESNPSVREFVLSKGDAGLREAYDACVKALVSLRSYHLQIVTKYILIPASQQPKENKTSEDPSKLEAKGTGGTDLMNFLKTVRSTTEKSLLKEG

IDO1 enzymatic assay activity at 25 °C ([1]; 25 °C): inactive | IDO1 activity after pre-incubation at 37 °C ([1]; holo-IDO1, 40 min at 37 °C): decreased IDO1 activity | inhibition of TDO (result in words) (His-tagged TDO): did not inhibit
Compound: CCOC(=O)C1=CC[C@](C(=O)OC)(c2cc3ccccc3n2C)N(S(=O)(=O)c2ccc(C)cc2)[C@@H]1C(=O)OC(C)(C)C [Compound 3d]
uptake (import) of L-Trp [2]: does not interfere | effect of free hemin on potency in the Kyn assay ([3]; BxPC-3, hemin, 600 nM apoxidole-1, 48 h): reduced the potency | activity in Kyn assay in BxPC-3 cells ([3]; BxPC-3 cells, 48 h, p-DMAB): completely inactive
